{"source": "patent US6603046B1", "about": "“Bis-aromatic a,β-unsaturated ketones” (Lica Pharmaceuticals A/S, priority 1992, dated 2003)", "key": {"[1]": {"assay": "Toxicity study in mice, i.v. and oral (Example 21)", "format": "in vivo, NMRI female mice", "procedure": "Drug. Licochalcone A solution was prepared as follows: 20 mg of licochalcone A was dissolved in 0.2 ml of ethanol. 60 mg of melted polyoxyethylene (23)lauryletherb (Brij 35) was added. 1.7 ml of phosphate buffer was then added while stirring on a warm plate. pH in the licochalcone A solution was adjusted to 7.3.\nMice. NMRI female mice (30-35 gram) in groups of 4 each were used for these studies. For the oral route experiment, the animals were fasted for 16 hrs with access to drinking water. Licochalcone A was suspended in 2% carboxymethylcellulose in water. This suspension was available for the mice in an amount of 0.1 ml per 10 gram body weight. The animals were observed every day for 7 days. For the intravenous injection experiment the animals were not fasted. Licochalcone A in solution (20 mg/ml) prepared as mentioned above was injected intravenously 0.1 ml per 10 gram body weight over a period of one hour and again 24 hrs later."}, "[2]": {"system": "human monocytes", "assay": "Zymosan-enhanced chemiluminescence, monocytes", "format": "cell-based", "conditions": "Monocyte, read-out: percentage inhibition of chemiluminescence response to opsonized zymosan (mean ± SEM)", "procedure": "Chemiluminescence. Monocytes were prepared from heparinized blood by metrizoate sodium-Ficoll (the same as lymphocyte proliferation). Polymorphonuclear leucocytes (PMN) were prepared from heparinized blood by dextran sedimentation and metrizoate sodium-Ficoll separation. Remaining erythrocytes were removed by hypotonic lysis. A zymosan-enhanced chemiluminescence assay was used. The assay was performed in a total volume of 5.5 ml at ambient temperature in glass scintillation vials. A Beckman L 8000 scintillation counter (placed under air-conditioned, thermostat controlled, 21±1° C. conditions) was used in the out-of-coincidence mode A 1.1 ml portion of PMN or monocyte suspension (1×10^6 cells per ml) was pre-incubated with 1.1 ml of various concentrations of licochalcone A for 30 min at 37° C. in a rotor at 20 rpm Luminol (5-amino-2,3-dihydro-1,4-phatalazinedione) obtained from Sigma Chemical Co., St Louis, Mo., U.S.A., was maintained as a stock solution of 10 mg/ml in NaOH (0.1 N) and diluted in Krebs-Ringer solution immediately before use. Each vial contained 5×10^5 pre-incubated PMN or monocyte, 4 mg of opsonized zymosan (Sigma), 50 μl of luminol solution, and 4.45 ml of Krebs-Ringer solution containing 5 mM glucose. The final concentration of luminol in the assay mixture was 5×10^−8m."}}, "data": [{"smiles": "C=CC(C)(C)c1cc(/C=C/C(=O)c2ccc(O)cc2)c(OC)cc1O", "note": "[Licochalcone A, licochalcone A]", "values": [{"measurement": "No. dead (after 7 days)", "setting": "[1]; 1000 mg/kg perorally, groups of 4", "result": "0 (after 7 days)"}, {"measurement": "No. dead (after 1 hr)", "setting": "[1]; i.v. 20 mg/kg, groups of 4", "result": 0}, {"measurement": "No. dead (after 1 hr)", "setting": "[1]; i.v. 50 mg/kg, groups of 4", "result": 1}, {"measurement": "No. dead (after 1 hr)", "setting": "[1]; i.v. 60 mg/kg, groups of 4", "result": 4}, {"measurement": "No. dead (after 1 hr)", "setting": "[1]; i.v. 100 mg/kg, groups of 4", "result": 4}, {"measurement": "Approximate LD50 i.v.", "setting": "[1]; mice", "result": "~55", "unit": "mg per kg body weight"}, {"measurement": "inhibition at 1 µg/mL", "setting": "[2]; 1 μg/ml", "result": "8.2 ± 3.3", "unit": "%"}, {"measurement": "inhibition at 2 µg/mL", "setting": "[2]; 2 μg/ml", "result": "7.8 ± 6.5", "unit": "%"}, {"measurement": "inhibition at 5 µg/mL", "setting": "[2]; 5 μg/ml", "result": "24.8 ± 5.3", "unit": "%"}, {"measurement": "inhibition at 10 µg/mL", "setting": "[2]; 10 μg/ml", "result": "37.9 ± 3.1", "unit": "%"}, {"measurement": "inhibition at 20 µg/mL", "setting": "[2]; 20 μg/ml", "result": "56.5 ± 3.8", "unit": "%"}]}]}
